Legend:
[1] = test system: Rattus norvegicus; test: Antidiabetic activity against streptozotocin-induced diabetic Wistar rat assessed as increase in serum albumin level at 10 mg/day, ip for 3 days measured after 3 days by BCG method (RVb=3.24+/-0.11 g/dl); format: functional
[2] = test system: Rattus norvegicus; test: Antidiabetic activity against streptozotocin-induced diabetic Wistar rat assessed as increase in serum albumin level at 10 mg/day, ip for 3 days measured after 6 days by BCG method (RVb=3.07+/-0.08 g/dl); format: functional
[3] = test system: Rattus norvegicus; test: Antidiabetic activity against streptozotocin-induced diabetic Wistar rat assessed as increase in incorporation of [14C]leucine in to hepatic […] fraction at 10 mg/day, ip measured per mg protein after 3 days (RVb=377+/-10 cpm); format: functional
[4] = test system: Rattus norvegicus; test: Antidiabetic activity against streptozotocin-induced diabetic Wistar rat assessed as increase in incorporation of [14C]leucine into hepatic soluble fraction at 10 mg/day, ip measured per mg protein after 6 days (RVb=227+/-8 cpm); format: functional
[5] = test system: Rattus norvegicus; test: Antidiabetic activity against streptozotocin-induced diabetic Wistar rat assessed as decrease in serum glucose level at 10 mg/day, ip for 3 days measured after 6 days (RVb=401+/-10.7 mg/dl); format: functional
[6] = test system: Rattus norvegicus; test: Antidiabetic activity against streptozotocin-induced diabetic Wistar rat assessed as increase in incorporation of [14C]leucine into hepatic microsomal fraction at 10 mg/day, ip measured per mg protein after 3 days (RVb=555+/-33 cpm); format: functional, Liver
[7] = test system: Rattus norvegicus; test: Antidiabetic activity against streptozotocin-induced diabetic Wistar rat assessed as increase in serum protein level at 10 mg/day, ip for 3 days measured after 3 days by biuret method (RVb=5.06+/-0.18 g/dl); format: functional
[8] = test system: Rattus norvegicus; test: Antidiabetic activity against streptozotocin-induced diabetic Wistar rat assessed as increase in incorporation of [14C]leucine in to hepatic nuclear fraction at 10 mg/day, ip measured per mg protein after 6 days (RVb=273+/-8 cpm); format: functional
[9] = test system: Rattus norvegicus; test: Antidiabetic activity against streptozotocin-induced diabetic Wistar rat assessed as increase in incorporation of [14C]leucine into hepatic […] fraction at 10 mg/day, ip measured per mg protein after 6 days (RVb=357+/-14 cpm); format: functional
[10] = test system: Rattus norvegicus; test: Antidiabetic activity against streptozotocin-induced diabetic Wistar rat assessed as increase in incorporation of [14C]leucine into hepatic homogenate at 10 mg/day, ip measured per mg protein after 6 days (RVb=372+/-3 cpm); format: functional
[11] = test system: Rattus norvegicus; test: Antidiabetic activity against streptozotocin-induced diabetic Wistar rat assessed as […] in incorporation of [14C]leucine into per mg serum protein at 10 mg/day, ip measured after 3 days (RVb=640+/-50 cpm); format: functional
[12] = test system: Rattus norvegicus; test: Antidiabetic activity against streptozotocin-induced diabetic Wistar rat assessed as increase in incorporation of [14C]leucine into hepatic homogenate at 10 mg/day, ip measured per mg protein after 3 days (RVb=401+/-16 cpm); format: functional
[13] = test system: Rattus norvegicus; test: Antidiabetic activity against streptozotocin-induced diabetic Wistar rat assessed as increase in incorporation of [14C]leucine into hepatic soluble fraction at 10 mg/day, ip measured per mg protein after 3 days (RVb=265+/-8 cpm); format: functional
[14] = test system: Rattus norvegicus; test: Antidiabetic activity against streptozotocin-induced diabetic Wistar rat assessed as increase in serum protein level at 10 mg/day, ip for 3 days measured after 6 days by biuret method (RVb=4.86+/-0.30 g/dl); format: functional
[15] = test system: Rattus norvegicus; test: Antidiabetic activity against streptozotocin-induced diabetic Wistar rat assessed as increase in incorporation of [14C]leucine in to hepatic nuclear fraction at 10 mg/day, ip measured per mg protein after 3 days (RVb=272+/-8 cpm); format: functional
[16] = test system: Rattus norvegicus; test: Antidiabetic activity against streptozotocin-induced diabetic Wistar rat assessed as […] in incorporation of [14C]leucine into per mg of serum protein at 10 mg/day, ip measured after 6 days (RVb=612+/-40 cpm); format: functional
[17] = test system: Rattus norvegicus; test: Antidiabetic activity against streptozotocin-induced diabetic Wistar rat assessed as increase in serum protein level at 10 mg/day, ip for 6 days by biuret method; format: functional
[18] = test system: Rattus norvegicus; test: Antidiabetic activity against streptozotocin-induced diabetic Wistar rat assessed as increase in incorporation of [14C]leucine into hepatic microsomal fraction at 10 mg/day, ip measured per mg protein after 6 days (RVb=499+/-57 cpm); format: functional, Liver
[19] = test system: Rattus norvegicus; test: Antidiabetic activity against streptozotocin-induced diabetic Wistar rat assessed as decrease in serum glucose level at 10 mg/day, ip for 3 days measured after 3 days (RVb=396+/-18.7 mg/dl); format: functional

Work on CC(C)=CCC[C@](C)(O[C@@H]1O[C@H](CO[C@@H]2OC[C@H](O)[C@H](O)[C@H]2O)[C@@H](O)[C@H](O)[C@H]1O)[C@H]1CC[C@]2(C)[C@@H]1[C@H](O)C[C@@H]1[C@@]3(C)CC[C@H](O[C@@H]4O[C@H](CO)[C@@H](O)[C@H](O)[C@H]4O[C@@H]4O[C@H](CO)[C@@H](O)[C@H](O)[C@H]4O)C(C)(C)[C@@H]3CC[C@]12C [GINSENOSIDE RB2] yielded an Activity [1] of 3.24 g/dL, an Activity [2] of 3.39 g/dL and an Activity [3] of 426 cpm. For the same compound, the Activity [4] was 242 cpm, the Activity [5] was 321 mg/dL and the Activity [6] was 689 cpm. It also gave an Activity [7] of 5.11 g/dL, an Activity [8] of 314 cpm and an Activity [9] of 395 cpm. The Activity [10] was 424 cpm, the Activity [11] was 921 cpm and the Activity [12] was 481 cpm. The Activity [13] was 287 cpm, the Activity [14] was 5.68 g/dL and the Activity [15] was 294 cpm. For the same compound, the Activity [16] was 699 cpm, the Activity [17] was 17% and the Activity [18] was 737 cpm. The Activity [19] was 337.2 mg/dL.
